# The source made the active and inactive calls.
# What was measured:
# [1] = molecular target: T1, Short transient receptor potential channel 4 (Mus musculus, UniProt Q9QUQ5); assay: block of DAMGO-driven TRPC4 calcium entry – cell-based, HEK293 TRPC4/mu-opioid, Fluo-4 calcium, dose response (AID 434942); assay type: functional;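 also: potency of inhibitors blocking the TRPC4 calcium response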
# T1 sequence (Q9QUQ5 whole entry): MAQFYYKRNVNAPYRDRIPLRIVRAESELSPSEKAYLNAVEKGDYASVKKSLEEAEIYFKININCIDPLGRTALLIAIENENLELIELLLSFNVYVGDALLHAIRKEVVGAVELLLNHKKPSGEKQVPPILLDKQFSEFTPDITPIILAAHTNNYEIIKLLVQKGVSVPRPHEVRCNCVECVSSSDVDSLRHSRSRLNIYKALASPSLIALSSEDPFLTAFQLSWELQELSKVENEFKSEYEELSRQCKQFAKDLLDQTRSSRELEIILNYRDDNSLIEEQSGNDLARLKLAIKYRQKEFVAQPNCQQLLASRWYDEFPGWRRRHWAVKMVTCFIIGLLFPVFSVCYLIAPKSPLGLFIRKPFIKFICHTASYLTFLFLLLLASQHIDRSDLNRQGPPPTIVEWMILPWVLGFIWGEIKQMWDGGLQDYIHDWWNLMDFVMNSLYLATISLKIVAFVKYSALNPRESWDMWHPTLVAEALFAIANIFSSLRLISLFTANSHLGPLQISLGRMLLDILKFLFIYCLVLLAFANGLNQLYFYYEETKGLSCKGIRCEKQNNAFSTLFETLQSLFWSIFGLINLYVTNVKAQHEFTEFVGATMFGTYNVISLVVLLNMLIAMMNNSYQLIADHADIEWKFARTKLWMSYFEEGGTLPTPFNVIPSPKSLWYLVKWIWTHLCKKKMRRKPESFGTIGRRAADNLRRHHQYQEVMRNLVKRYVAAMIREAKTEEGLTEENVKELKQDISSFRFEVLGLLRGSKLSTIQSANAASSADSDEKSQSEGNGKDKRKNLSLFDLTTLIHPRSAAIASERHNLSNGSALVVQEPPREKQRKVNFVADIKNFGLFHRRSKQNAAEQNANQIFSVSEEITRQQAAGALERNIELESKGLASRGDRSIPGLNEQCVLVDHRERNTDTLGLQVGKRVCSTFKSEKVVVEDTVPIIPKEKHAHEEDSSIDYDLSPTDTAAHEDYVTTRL
# [2] = molecular target: Mu-type opioid receptor (Homo sapiens, UniProt P35372); assay: Counterscreen for agonists of heterodimerization of the mu 1 (OPRM1) and delta 1 (OPRD1) opioid receptors: Luminescence-based cell-based high throughput dose response assay to identify agonists of OPRM1 homodimerization.; assay type: functional;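 also: U2OS cells expressing OPRM1 and beta-arrestin as split beta-galactosidase partners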
# Sequence of Mu-type opioid receptor (P35372 whole entry): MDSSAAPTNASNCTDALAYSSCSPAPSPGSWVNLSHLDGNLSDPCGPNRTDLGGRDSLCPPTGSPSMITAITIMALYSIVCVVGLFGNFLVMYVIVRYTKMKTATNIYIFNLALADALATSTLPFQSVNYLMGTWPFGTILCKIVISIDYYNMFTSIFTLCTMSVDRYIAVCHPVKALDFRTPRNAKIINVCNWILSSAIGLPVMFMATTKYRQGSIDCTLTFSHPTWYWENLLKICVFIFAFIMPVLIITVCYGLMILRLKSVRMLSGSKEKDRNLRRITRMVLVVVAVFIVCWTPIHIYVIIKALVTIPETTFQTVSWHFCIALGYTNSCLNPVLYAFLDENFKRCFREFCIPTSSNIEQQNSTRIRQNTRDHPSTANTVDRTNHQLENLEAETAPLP
# [3] = molecular target: 5-hydroxytryptamine receptor 5A (Homo sapiens, UniProt P47898); assay: Counterscreen for agonists of OPRM1-OPRD1 heterodimerization: luminescence-based cell-based high throughput dose response assay to identify agonists of 5-hydroxytryptamine (serotonin) 5A receptor (HTR5A). [Related pubchem assays (depositor defined):AID504326, AID504355, AID504692, AID504904, AID504905]; assay type: functional
# Sequence of 5-hydroxytryptamine receptor 5A (P47898 whole entry): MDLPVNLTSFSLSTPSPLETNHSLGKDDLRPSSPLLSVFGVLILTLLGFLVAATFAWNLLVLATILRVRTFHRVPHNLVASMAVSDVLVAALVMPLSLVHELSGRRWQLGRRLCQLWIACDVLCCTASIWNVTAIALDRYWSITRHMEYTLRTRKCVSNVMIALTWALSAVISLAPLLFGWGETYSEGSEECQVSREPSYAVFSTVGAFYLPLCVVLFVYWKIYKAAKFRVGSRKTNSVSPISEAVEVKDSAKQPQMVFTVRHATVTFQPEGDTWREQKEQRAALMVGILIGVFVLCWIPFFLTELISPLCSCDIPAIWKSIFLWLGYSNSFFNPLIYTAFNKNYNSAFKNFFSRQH
# [4] = molecular target: Delta-type opioid receptor (Homo sapiens, UniProt P41143); assay: Counterscreen for agonists of heterodimerization of the mu 1 (OPRM1) and delta 1 (OPRD1) opioid receptors: Luminescence-based cell-based high throughput dose response assay to identify agonists of OPRD1 homodimerization. [Related pubchem assays (depositor defined):AID504326, AID504355, AID504692, AID504904, AID504905]; assay type: functional
# Sequence of Delta-type opioid receptor (P41143 whole entry): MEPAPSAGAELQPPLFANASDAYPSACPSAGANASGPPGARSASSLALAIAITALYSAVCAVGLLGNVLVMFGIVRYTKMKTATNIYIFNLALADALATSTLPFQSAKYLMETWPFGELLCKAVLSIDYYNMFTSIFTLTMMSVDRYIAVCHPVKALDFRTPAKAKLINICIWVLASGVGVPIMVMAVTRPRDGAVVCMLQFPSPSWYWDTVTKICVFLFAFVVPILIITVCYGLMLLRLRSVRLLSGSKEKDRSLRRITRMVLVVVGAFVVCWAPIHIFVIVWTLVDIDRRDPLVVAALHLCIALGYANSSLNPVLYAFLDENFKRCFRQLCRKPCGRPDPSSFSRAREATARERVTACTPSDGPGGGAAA
# [5] = decrease of insulin promoter-GFP reporter – imaging, high-content screening, mouse beta cells (AID 1628); assay type: functional; conditions: MIN6
# [6] = MIN6 cell viability loss – mouse insulinoma, cytotoxicity control, dose response (AID 2122); assay type: functional;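 also: confirmatory high-throughput counterscreen run to flag cytotoxic compounds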
# [7] = molecular target: E3 ubiquitin-protein ligase Mdm2 (Homo sapiens, UniProt Q00987); assay: MDM2-luc reporter signal enhancers, multi-concentration potency testing, MDM2 ubiquitin-protein ligase inhibitor program, whole-cell format, luminescence detection, 384-well microplate (AID 1394); assay type: functional;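 also: MDM2 E3 inhibitors raise luminescence so EC50 is for signal enhancement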
# Sequence of E3 ubiquitin-protein ligase Mdm2 (Q00987 whole entry): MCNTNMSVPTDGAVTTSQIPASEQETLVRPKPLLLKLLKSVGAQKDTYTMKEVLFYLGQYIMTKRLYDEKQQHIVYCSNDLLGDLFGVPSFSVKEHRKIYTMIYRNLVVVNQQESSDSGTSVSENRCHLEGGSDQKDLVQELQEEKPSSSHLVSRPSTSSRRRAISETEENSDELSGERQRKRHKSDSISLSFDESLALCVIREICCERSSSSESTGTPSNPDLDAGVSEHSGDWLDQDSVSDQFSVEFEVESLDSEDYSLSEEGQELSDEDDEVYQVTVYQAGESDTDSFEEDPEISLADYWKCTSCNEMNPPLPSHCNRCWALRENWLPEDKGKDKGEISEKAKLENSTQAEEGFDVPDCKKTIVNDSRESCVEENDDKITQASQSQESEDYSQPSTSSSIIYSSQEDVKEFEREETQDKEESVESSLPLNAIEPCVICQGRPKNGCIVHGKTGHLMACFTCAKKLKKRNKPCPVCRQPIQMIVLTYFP
# [8] = molecular target: T2, Lysine-specific demethylase 4C (Homo sapiens, UniProt Q9H3R0); assay: inhibition of JMJD2C H3K9me3 demethylation – biochemical, DELFIA europium, cherry-picked samples, dose response (AID 488835); assay type: functional
# T2 sequence (Q9H3R0 whole entry): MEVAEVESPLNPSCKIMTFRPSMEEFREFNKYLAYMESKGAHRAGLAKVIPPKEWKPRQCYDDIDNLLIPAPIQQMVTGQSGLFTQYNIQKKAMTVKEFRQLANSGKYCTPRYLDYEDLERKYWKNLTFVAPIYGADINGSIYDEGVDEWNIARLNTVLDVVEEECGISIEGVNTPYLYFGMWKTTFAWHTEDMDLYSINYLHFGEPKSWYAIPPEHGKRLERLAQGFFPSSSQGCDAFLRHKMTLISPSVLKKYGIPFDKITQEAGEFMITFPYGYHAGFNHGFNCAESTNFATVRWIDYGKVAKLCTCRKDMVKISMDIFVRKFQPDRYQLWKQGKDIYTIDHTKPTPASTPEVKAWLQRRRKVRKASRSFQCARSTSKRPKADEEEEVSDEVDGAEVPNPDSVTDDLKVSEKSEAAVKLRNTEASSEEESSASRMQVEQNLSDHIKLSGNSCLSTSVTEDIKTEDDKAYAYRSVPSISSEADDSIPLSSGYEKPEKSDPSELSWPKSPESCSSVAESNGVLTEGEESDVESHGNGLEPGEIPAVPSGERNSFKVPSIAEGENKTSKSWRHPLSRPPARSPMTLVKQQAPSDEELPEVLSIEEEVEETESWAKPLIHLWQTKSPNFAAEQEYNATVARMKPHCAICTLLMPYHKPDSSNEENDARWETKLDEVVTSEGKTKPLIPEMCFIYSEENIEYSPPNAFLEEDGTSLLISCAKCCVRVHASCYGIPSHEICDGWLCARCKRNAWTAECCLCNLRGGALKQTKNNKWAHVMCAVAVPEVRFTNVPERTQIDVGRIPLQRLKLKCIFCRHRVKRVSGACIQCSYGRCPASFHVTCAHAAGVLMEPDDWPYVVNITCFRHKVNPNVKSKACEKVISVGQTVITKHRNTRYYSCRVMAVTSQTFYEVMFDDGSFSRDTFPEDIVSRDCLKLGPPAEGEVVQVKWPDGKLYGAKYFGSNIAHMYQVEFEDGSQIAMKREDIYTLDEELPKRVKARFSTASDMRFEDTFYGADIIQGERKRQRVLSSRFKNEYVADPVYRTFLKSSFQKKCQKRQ
# [9] = molecular target: T3, Long-chain-fatty-acid--AMP ligase FadD28 (Mycobacterium tuberculosis, UniProt P9WQ59); assay: Fluorescence polarization aasay to screen for inhibitors that compete for the binding of FadD28 to a bisubstrate Measured in Biochemical System Using Plate Reader - 2147-01_Inhibitor_Dose_CherryPick_Activity.; assay type: functional, Mycobacterium tuberculosis H37Rv
# T3 sequence (P9WQ59 whole entry): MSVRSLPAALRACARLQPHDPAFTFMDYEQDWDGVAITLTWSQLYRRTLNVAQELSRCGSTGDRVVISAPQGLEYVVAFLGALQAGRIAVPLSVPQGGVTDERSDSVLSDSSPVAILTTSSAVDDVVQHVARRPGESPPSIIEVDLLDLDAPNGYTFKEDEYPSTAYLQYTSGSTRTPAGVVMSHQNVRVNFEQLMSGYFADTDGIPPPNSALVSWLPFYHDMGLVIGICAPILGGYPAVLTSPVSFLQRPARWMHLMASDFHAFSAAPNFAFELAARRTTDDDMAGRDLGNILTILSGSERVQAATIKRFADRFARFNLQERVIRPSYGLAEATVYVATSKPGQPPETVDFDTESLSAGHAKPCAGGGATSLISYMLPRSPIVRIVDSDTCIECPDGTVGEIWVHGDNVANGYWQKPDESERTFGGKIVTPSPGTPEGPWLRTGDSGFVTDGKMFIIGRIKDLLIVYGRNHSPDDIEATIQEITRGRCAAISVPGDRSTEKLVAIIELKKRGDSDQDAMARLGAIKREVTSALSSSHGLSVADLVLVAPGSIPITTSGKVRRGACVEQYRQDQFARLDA
# [10] = molecular target: Large T antigen (Simian virus 40, UniProt P03070); assay type: functional, Betapolyomavirus macacae;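 also: Confirmatory-stage PubChem screen for compounds that inhibit SV40 T antigen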
# Sequence of Large T antigen (P03070 whole entry): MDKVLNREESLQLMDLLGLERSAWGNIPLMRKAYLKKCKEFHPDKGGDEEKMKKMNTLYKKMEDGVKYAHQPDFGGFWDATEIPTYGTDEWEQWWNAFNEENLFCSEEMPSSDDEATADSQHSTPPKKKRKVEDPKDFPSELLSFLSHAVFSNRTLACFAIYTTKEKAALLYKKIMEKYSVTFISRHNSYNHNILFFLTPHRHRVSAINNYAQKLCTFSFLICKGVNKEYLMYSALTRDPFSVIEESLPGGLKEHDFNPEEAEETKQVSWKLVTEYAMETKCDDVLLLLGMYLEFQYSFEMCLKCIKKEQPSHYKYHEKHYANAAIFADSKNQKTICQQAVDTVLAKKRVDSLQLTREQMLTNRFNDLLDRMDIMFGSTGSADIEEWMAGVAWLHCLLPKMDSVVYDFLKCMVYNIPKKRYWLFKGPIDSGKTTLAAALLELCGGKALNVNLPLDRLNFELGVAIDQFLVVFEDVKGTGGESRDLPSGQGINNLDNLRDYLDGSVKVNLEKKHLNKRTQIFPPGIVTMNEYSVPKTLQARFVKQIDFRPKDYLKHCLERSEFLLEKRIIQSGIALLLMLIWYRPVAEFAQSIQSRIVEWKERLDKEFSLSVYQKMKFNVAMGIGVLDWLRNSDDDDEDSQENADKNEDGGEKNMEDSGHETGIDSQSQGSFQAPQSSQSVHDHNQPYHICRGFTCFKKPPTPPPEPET
# [11] = system: Escherichia coli; assay: microbe, parasite or virus in culture
# [12] = system: Vero; assay: cells; assay type: functional; conditions: Chlorocebus sabaeus
# [13] = molecular target: T4, Heat shock factor protein 1 (Mus musculus, UniProt P38532); assay: enhancement of HSF1-driven luciferase signal – cell-based, NIH3T3, luminescence, dose retest, confirmation (AID 435004); assay type: functional;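 also: stress induced by proteasome inhibitor MG132 added 30 min after compound; luciferase reporter driven by HSF1 response element in NIH3T3 cells; actives raise luminescence as potentiators of the MG132 stress response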
# T4 sequence (P38532 whole entry): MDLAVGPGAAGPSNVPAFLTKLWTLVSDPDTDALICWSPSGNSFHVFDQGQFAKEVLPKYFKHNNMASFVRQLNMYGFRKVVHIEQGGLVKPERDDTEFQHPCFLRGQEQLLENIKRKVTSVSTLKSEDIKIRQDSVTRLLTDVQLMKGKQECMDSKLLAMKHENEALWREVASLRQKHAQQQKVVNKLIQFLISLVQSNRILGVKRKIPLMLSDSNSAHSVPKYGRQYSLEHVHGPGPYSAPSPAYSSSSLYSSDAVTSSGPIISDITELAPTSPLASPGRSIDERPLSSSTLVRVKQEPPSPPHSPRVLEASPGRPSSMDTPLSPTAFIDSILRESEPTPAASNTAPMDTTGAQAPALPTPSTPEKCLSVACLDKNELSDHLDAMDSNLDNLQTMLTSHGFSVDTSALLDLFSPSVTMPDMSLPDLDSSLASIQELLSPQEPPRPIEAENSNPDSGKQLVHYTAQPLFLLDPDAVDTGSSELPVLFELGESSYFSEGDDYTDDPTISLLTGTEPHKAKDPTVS
# [14] = system: HEK293; assay: inhibition of NOD1-driven NF-kB reporter – cell-based, luminescence, uHTS, primary screen (AID 1578); assay type: functional; conditions: Homo sapiens
# [15] = system: HEK293; assay: NOD2 signaling inhibitors in MDP-stimulated cells, cell-based, uHTS, luminescence (AID 2001); assay type: functional; conditions: Homo sapiens
# [16] = Vero E6 cell cytotoxicity, dose response, cytotoxicity control for non-replicating M. tuberculosis project, secondary assay (AID 492998); assay type: functional, VeroE6; conditions: Vero C1008
# [17] = system: HEK293; assay: cells; assay type: functional, cell-based; conditions: Homo sapiens
# [18] = system: HEK293; assay: cells; assay type: functional, cell-based; conditions: Homo sapiens; remark: listed apart in the source
# [19] = cells; assay type: functional
# [20] = THP-1 cell cytotoxicity, dose response, cytotoxicity control for non-replicating M. tuberculosis project (AID 489025); assay type: functional
# [21] = non-specific 3'UTR reporter inhibition in Clone20-Shn3RL – cell-based, Renilla luciferase, cherry-picked, counter-screen for Shn3 inhibitor project, dose response (AID 624133); assay type: functional
# [22] = cells; assay type: functional, cell-based
# [23] = cells; assay type: functional, cell-based; remark: listed apart in the source
# [24] = reduction of Shn3 3'UTR-driven luciferase in osteoblasts – cell-based, Clone20 osteoblasts, firefly luciferase, cherry-picked, dose response (AID 624132); assay type: functional;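 also: firefly luciferase luminescence from reporter carrying the Shn3 3'UTR in osteoblasts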
# [25] = loss of viability in HepG2 cells – cell-based, CellTiter-Glo, cherry-picked, cytotoxicity control for Shn3 inhibitor project, dose response (AID 624134); assay type: functional
# [26] = system: INS1; assay: INS-1E survival protection against cytokine death – cell-based, luminescence, retest, dose response (AID 449756); assay type: functional; conditions: Rattus norvegicus;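 also: cell death triggered by IL-1 beta plus TNF-alpha plus IFN-gamma mixture; protective hits raise ATP signal compared with cytokine alone wells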
structure (smiles),measurement,setting,value
CN(C)C(CNC(=O)c1cccc(C(F)(F)F)c1)c1ccco1 (stereo unspecified),EC50,[1],0.376 µM (active)
same,EC50,[2],> 92.4 µM (inactive)
same,EC50,[3],> 92.4 µM (inactive)
same,EC50,[4],> 92.4 µM (inactive)
Cn1c(=O)c2c(nc(NCc3ccc4c(c3)OCO4)n2Cc2ccccc2)n(C)c1=O,IC50,[5],0.696 µM (active)
same,IC50,[6],0.541 µM (active)
CCN1C(=O)C(=C/C=C/c2ccco2)C(=O)N(CC)C1=S,EC50,[7],25 µM (not active)
same,AC50,[8],1.18 µM (active)
same,AC50,[9],> 100 µM (inactive)
same,IC50,[10],45.3 µM (active)
Cc1nc(SCc2ccc(C(=O)O)cc2)c2c(C)c(C)sc2n1,AC50,[11],28.5 µM (active)
O=C1N(c2ccccc2C(F)(F)F)OC1(Cc1ccccc1)c1ccccc1 (stereo unspecified),CC50,[12],> 25 µM (active)
COC(=O)c1c(NC(=O)CCN2CCOCC2)sc2c1CCCC2,AC50,[11],85.8 µM (active)
COc1ccc(-c2nnc(Nc3ccc(CC(N)=O)cc3)c3ccccc23)cc1,EC50,[13],> 260 µM (inactive)
same,AC50,[11],23.2 µM (active)
CN(C)C(CNC(=O)CSC(=S)N1CCCC1)c1ccccc1 (stereo unspecified),EC50,[2],17.1 µM (inactive)
same,EC50,[3],> 92.5 µM (inactive)
same,EC50,[4],> 92.5 µM (inactive)
COc1ccccc1NC(=O)c1sc2nc(C)cc(C)c2c1N,EC50,[2],> 92.5 µM (inactive)
same,EC50,[3],> 92.5 µM (inactive)
same,EC50,[4],> 92.5 µM (inactive)
O=C(N/N=C\c1ccc([N+](=O)[O-])s1)C1COc2ccccc2O1 (stereo unspecified),EC50,[14],9.04 µM (active)
same,IC50,[15],16.2 µM (inactive)
same,CC50,[16],13.3 µM (active)
same,IC50,[17],> 20 µM (inactive)
same,IC50,[18],19.1 µM (active)
same,IC50,[19],5.68 µM (active)
same,CC50,[20],22.6 µM (active)
Cc1ccc(Nc2c(-c3ccccn3)nc3ccc(C)cn23)cc1,AC50,[21],3.02 µM (active)
same,IC50,[5],1.95 µM (active)
same,EC50,[22],79.5 µM (active)
same,EC50,[23],38.3 µM (active)
same,AC50,[24],1.74 µM (active)
same,IC50,[6],0.539 µM (active)
same,AC50,[25],5.21 µM (active)
same,AC50,[26],3 µM (active)
